The source of these data is US9637507B2, “Process for the preparation of liquid tin(II) alkoxides” (CHIANG MAI UNIVERSITY, priority 2012, dated 2017).

For data set [1] the following is noted: literature solids; cited from earlier work.
A short description of data set [2]: Storage of liquid tin(II) alkoxides under nitrogen or argon. To be noted: stored under a nitrogen or argon atmosphere.
The nature of data set [3]: Solubility test of tin(II) alkoxides in organic solvents. It is filed as physicochemical. To be noted: liquid tin(II) alkoxides; temperature range of 25-38° C.

`CC[O][Sn][O]CC` [Tin(II) ethoxide, reference compound]: the “Stability (moisture, oxygen, colour change)” value in data set [1] was “turned yellow rapidly, even when the product was dried and kept under vacuum”. As for `CCCC[O-].CCCC[O-].[Sn+2]` [Tin(II) n-butoxide, tin(II) n-butoxide], in data set [1], the “Stability (moisture, oxygen, colour change)” value is “extremely moisture and oxygen sensitive”. The “Storage stability (reactivity)” value in data set [2] is “without any significant effect on their reactivity”.

For the compound tin(II) n-hexoxide, in data set [3], the “Solubility in common organic solvents” value is reported as “soluble in common organic solvents”. For the compound tin(II) n-octoxide, the “Solubility in common organic solvents” value in data set [3] is “soluble in common organic solvents”.
